The values below are quoted from earlier work in patent US20250332118A1, “NOVEL ORAL CARE FORMULATIONS FOR TREATMENT OF XEROSTOMIA” (priority 2022, published 2025).

The conditions of the data set: @ 79° F.

Consider `CS(C)(=O)=O` [MSM, Methylsulfonylmethane], for which the Water solubility is recorded as 34 % w/v.
